The values that follow come from US10815219B2, “2,4-diaminoquinazoline derivatives for inhibiting endoplasmic reticulum (ER) stress” (The Board of Regents of the University of Oklahoma, priority 2017, dated 2020).

SMILES strings stand for the structures. Like-named read-outs stand apart in the source and are kept apart here.

The subject of the assay is INS-1 cells. As to the kind of experiment: INS-1 cell survival after Tm treatment (CellTiter-Glo, intracellular ATP). The assay is classed as cell-based, rat. The note with it: for Maximum activity: % rescue from Tm (0.1 μg/mL)-induced reduction of cell viability, Tm alone 0%, DMSO 100%. Here is the method: A structure-activity-relationship (SAR) study was thus conducted to improve the weak potency of lead compound 5a. Newly synthesized or commercially available compounds were tested for their β-cell-protective activity against ER stress in rat INS-1 β-cells. […] Maximum activity value in the tables is reported as % rescue from Tm (0.1 μg/mL)-induced reduction of cell viability. The values for Tm treatment alone and control (DMSO, without Tm) treatment are designated as 0% and 100%, respectively in all tables. EC50 values (the concentrations that reach half-maximal activity) for INS-1 cell viability were calculated with GraphPad Prism from the data of ten 2-fold serial titration points in all tables. All experiments were performed in triplicate in all tables.
INS-1 cells or βTC6 cells were seeded at 3×10^3 cells/well in a 384-well plate and treated with compounds at the indicated concentrations. After 3 d treatment, the medium was aspirated and 20 μL/well of CellTiter-Glo reagent (Promega, WI, USA) was added for the detection of intracellular ATP levels. Cell viability was measured with an EnVision multilabel plate reader (PerkinElmer, MA, USA).
(Cellular ATP, detected with luciferase, serves as a proxy for viable cell number.)

The mark [1] stands for this setting: INS-1 cell viability, Tm 0.1 μg/mL, 72 h, ten 2-fold serial titration points, Table 2, read-out: EC50.
Where [2] appears, read: INS-1 cell viability in presence of Tm, read-out: EC50.
[3] abbreviates: INS-1 cell viability, Tm 0.1 μg/mL, 72 h, ten 2-fold serial titration points, Table 1, read-out: EC50.
The mark [4] stands for this setting: INS-1 cell viability, Tm 0.1 μg/mL, 72 h, ten 2-fold serial titration points, Table 3, read-out: EC50.

Broadly, the EC50 is the concentration giving half of the maximal effect. In turn, `OCC1CCCCN1c1nc(NCCc2ccccc2Cl)c2ccccc2n1` (racemic) [Compound 6l] gave a Maximum activity (72 h, Table 2) of 51.4%. In addition, the EC50 under setting [1] is 0.47 ± 0.45 µM.
With `OCC1CCCN1c1nc(NCCc2ccccc2)c2ccccc2n1` (stereo not drawn) [Compound 5a, (1-(4-(phenethylamino)quinazolin-2-yl)pyrrolidin-2-yl)methanol], the Maximum activity (72 h, Table 1) is 54.4%. Besides, the concentration for a half-maximal effect (EC50) by setting is: under setting [2], approximately 0.5 µM; (Rattus norvegicus, INS1, 72 h, INS-1 cell viability, Tm 0.1 μg/mL, 72 h, ten 2-fold serial titration points, Table 1, read-out: EC50) 0.48 ± 0.19 µM; (Rattus norvegicus, INS1, running text, INS-1 cell viability in presence of Tm, read-out: EC50) 0.48 ± 0.19 µM.
In the case of `OCC1CCCN1c1nc(NCCc2ccc(F)cc2)c2ccccc2n1` (stereo not drawn) [Compound 5b], the Maximum activity (72 h, Table 1) is 56.2%. Besides, the concentration for a half-maximal effect (EC50) under setting [3] was found to be 2.13 ± 0.41 µM.
For `OCC1CCCN1c1nc(NCCc2ccc(Cl)cc2)c2ccccc2n1` (stereo not drawn) [Compound 5c], the Maximum activity (72 h, Table 1) is listed as 57.3%. Also, the half-maximal effective concentration (EC50) was approximately 0.5 µM under setting [2] and 0.51 ± 0.09 µM under setting [3].
Molecule `OCC1CCCN1c1nc(NCCc2ccc(Br)cc2)c2ccccc2n1` (stereo not drawn) [Compound 5d] had a Maximum activity (72 h, Table 1) of 44.1%. Besides, the EC50 is approximately 0.5 µM under setting [2] and 0.65 ± 0.16 µM under setting [3].
Taken in the same sequence, the figures for `Cc1ccc(CCNc2nc(N3CCCC3CO)nc3ccccc23)cc1` (stereo not drawn) [Compound 5e] were 34.2%, approximately 0.5 µM and 0.66 ± 0.21 µM.
Where the note is “72 h, Table 1”, `OCC1CCCN1c1nc(NCCc2cccc(F)c2)c2ccccc2n1` (stereo not drawn) [Compound 5f] registered a Maximum activity of 51.3%. Further, the EC50 under setting [3] is 1.15 ± 0.19 µM.
For `OCC1CCCN1c1nc(NCCc2cccc(Cl)c2)c2ccccc2n1` (stereo not drawn) [Compound 5g], in that order: 51.5% and 1.05 ± 0.18 µM.
`OCC1CCCN1c1nc(NCCc2cccc(Br)c2)c2ccccc2n1` (stereo not drawn) [Compound 5h] registered a Maximum activity (72 h, Table 1) of 53.2%. The EC50 under setting [3] is 0.78 ± 0.24 µM.
Taken in the same sequence, the figures for `COc1cccc(CCNc2nc(N3CCCC3CO)nc3ccccc23)c1` (stereo not drawn) [Compound 5i] were 54.9% and 1.51 ± 0.13 µM.
Taken in the same sequence, the figures for `OCC1CCCN1c1nc(NCCc2ccccc2F)c2ccccc2n1` (stereo not drawn) [Compound 5j] were 52.5% and 1.7 ± 0.23 µM.
Taken in the same sequence, the figures for `OCC1CCCN1c1nc(NCCc2ccccc2Cl)c2ccccc2n1` (stereo not drawn) [Compound 5k] were 50.6% and 1.44 ± 0.27 µM.
Turning to `OC[C@@H]1CCCN1c1nc(NCCc2ccccc2Br)c2ccccc2n1` [Compound 5l], the Maximum activity (72 h, Table 1) was determined as 39.0%. In addition, the EC50 under setting [3] amounted to 1.88 ± 0.32 µM.
As for `COc1ccccc1CCNc1nc(N2CCCC2CO)nc2ccccc12` (stereo not drawn) [Compound 5m], the Maximum activity (72 h, Table 1) came out at 56.6%. Also, the EC50 under setting [3] came out at 3.56 ± 0.15 µM.
The molecule `OCC1CCCCN1c1nc(NCCc2ccccc2)c2ccccc2n1` (stereo not drawn) [Compound 6a] registered a Maximum activity (72 h, Table 2) of 55.7%. The EC50 under setting [1] amounted to 0.36 ± 0.21 µM.
Regarding `OCC1CCCCN1c1nc(NCCc2ccc(F)cc2)c2ccccc2n1` (stereo not drawn) [Compound 6b], the “EC50 improvement over 2-(hydroxymethyl)pyrrolidin-1-yl counterpart” value (6-series versus 5-series counterpart) is recorded as approximately 7 fold. This molecule registered a Maximum activity (72 h, Table 2) of 47.5%. In addition, the 50% effective concentration (EC50) under setting [1] amounted to 0.31 ± 0.26 µM.
The molecule `OCC1CCCCN1c1nc(NCCc2ccc(Cl)cc2)c2ccccc2n1` (stereo not drawn) [Compound 6c] showed a Maximum activity (72 h, Table 2) of 57.6%. Moreover, under setting [1], the 50% effective concentration (EC50) was 0.17 ± 0.05 µM.
Under “72 h, Table 2”, `OCC1CCCCN1c1nc(NCCc2ccc(Br)cc2)c2ccccc2n1` (stereo not drawn) [Compound 6d] showed a Maximum activity of 52.8%. The EC50 under setting [1] came to 0.34 ± 0.09 µM.
For `Cc1ccc(CCNc2nc(N3CCCCC3CO)nc3ccccc23)cc1` (stereo not drawn) [Compound 6e], in that order: 33.6% and 0.14 ± 0.04 µM.
For `COc1ccc(CCNc2nc(N3CCCCC3CO)nc3ccccc23)cc1` (stereo not drawn) [Compound 6f], the Maximum activity (72 h, Table 2) is 58.6%. Besides, the concentration for a half-maximal effect (EC50) under setting [1] was found to be 0.31 ± 0.12 µM.
Taken in the same sequence, the figures for `OCC1CCCCN1c1nc(NCCc2cccc(F)c2)c2ccccc2n1` (stereo not drawn) [Compound 6g] were 57.3% and 1.88 ± 0.18 µM.
For `OCC1CCCCN1c1nc(NCCc2cccc(Cl)c2)c2ccccc2n1` (stereo not drawn) [Compound 6h], in that order: 46.2% and 0.79 ± 0.3 µM.
For the molecule `OCC1CCCCN1c1nc(NCCc2cccc(Br)c2)c2ccccc2n1` (stereo not drawn) [Compound 6i], the Maximum activity (72 h, Table 2) is recorded as 51.7%. Moreover, under setting [1], the EC50 was 0.77 ± 0.4 µM.
`COc1cccc(CCNc2nc(N3CCCCC3CO)nc3ccccc23)c1` (stereo not drawn) [Compound 6j] registered a Maximum activity (72 h, Table 2) of 69.2%. For the same molecule, the EC50 result (INS-1 cell viability in presence of Tm) is reported as “increased” and the half-maximal effective concentration (EC50) under setting [1] is 2.59 ± 0.31 µM.
`OCC1CCCCN1c1nc(NCCc2ccccc2F)c2ccccc2n1` (stereo not drawn) [Compound 6k] came in with a Maximum activity (72 h, Table 2) of 60.3%. Under setting [1], the EC50 amounted to 1.46 ± 0.46 µM.
For `OCC1CCCCN1c1nc(NCCc2ccccc2Br)c2ccccc2n1` (stereo not drawn) [Compound 6m], in that order: 44.2% and 1.41 ± 0.31 µM.
For the setting “72 h, Table 2”, `COc1ccccc1CCNc1nc(N2CCCCC2CO)nc2ccccc12` (stereo not drawn) [Compound 6n] yielded a Maximum activity of 46.9%. In addition, the half-maximal effective concentration (EC50) under setting [1] was 1.6 ± 0.15 µM.
`COc1ccc(CNc2nc(N3CCCC3CO)nc3ccccc23)cc1` (stereo not drawn) [Compound 8c] returned a Maximum activity (72 h, Table 3) of 57.2%. The half-maximal effective concentration (EC50) under setting [4] is 4.05 ± 0.13 µM.
For `COc1ccc(CNc2nc(N3CCCC3CO)nc3ccccc23)cc1OC` (stereo not drawn) [Compound 8d], in that order: 44.9% and 1.85 ± 0.39 µM.
Regarding `OCC1CCCCN1c1nc(NCc2ccccc2)c2ccccc2n1` (stereo not drawn) [Compound 9a], under “72 h, Table 3”, the Maximum activity worked out at 56.4%. The concentration giving a half-maximal response (EC50) under setting [4] is 0.23 ± 0.07 µM.
For `OCC1CCCCN1c1nc(NCc2ccc(Cl)cc2)c2ccccc2n1` (stereo not drawn) [Compound 9b], in that order: 54.7% and 0.21 ± 0.08 µM.
Taken in the same sequence, the figures for `COc1ccc(CNc2nc(N3CCCCC3CO)nc3ccccc23)cc1OC` (stereo not drawn) [Compound 9d] were 69.4% and 3.64 ± 0.38 µM.
In the case of `Nc1nc(Sc2cc(-n3cccc3)c(Cl)cc2[N+](=O)[O-])n[nH]1` [RH01687, reference compound], where the note is “INS-1 cells, Tm 0.1 μg/mL, 72 h, based on dose-dependent curves”, the “concentration exhibiting the maximum protective activity” value was 30 µM.
